Laboratory results as given in patent US8846012B2, “Melanin production inhibitor” (Pola Chemical Industries Inc., priority 2008, dated 2014).

Test system: normal human melanocytes
Experiment: Melanin production inhibition test using cultured normal human melanocytes (14C-thiouracil incorporation)
Format: cell-based
Settings: control = 100%; for activity at 5 µM: addition amount 5.0 μM; for activity at 20 µM: addition amount 20 μM; for activity at 10 µM: addition amount 10 μM; for activity at 3.1 µM: addition amount 3.1 μM; for activity at 1.6 µM: addition amount 1.6 μM; for activity at 8 µM: addition amount 8.0 μM
Method: The inhibitory effect on melanin production of the melanin production inhibitor of the present invention can be measured using thiouracil which is incorporated specifically into cells in a melanin synthesis process in the cells. For example, the amount of melanin production can be measured by measuring an amount of thiouracil incorporated into cells by measuring an amount of radiation with radiolabeled thiouracil.
The inhibitory effect on melanin production of Compound 1 was evaluated using 2-thiouracil (^14C-labeled 2-thiouracil was used in this test) which is incorporated specifically into melanin in an intracellular melanin synthesis process. Complete medium for culture of melanocytes (manufactured by Kurabo Industries Ltd.) was added to 15 wells in a 24-well plate in an amount of 2 mL per well, and normal human melanocytes (manufactured by Kurabo Industries Ltd.) were seeded into the wells at a concentration of 1.5×10^4 cells/cm^2. The cells were cultured in a 5% carbon dioxide atmosphere at 37° C. for 24 hours. Thereafter, the medium in all the wells was exchanged under the following conditions: fresh complete medium for culture of melanocytes (control) was used in three wells; each of complete medium for culture of melanocytes, which including Compound 1 at concentrations of 1.0 μM, 2.0 μM, and 4.0 μM, was used in a total of nine wells including three wells for each concentration; and complete medium for culture of melanocytes, each of which including arbutin (positive control) known as a melanin production inhibitor at a concentration of 0.5 mM (500 μM), was used in the other three wells. Further, 2-[2-^14C]thiouracil (^14C-labeled thiouracil) was added to each of these 15 wells at 0.25×10^−6 Ci (curie). Then, the cells were cultured for further 3 days under the same conditions as the above. After the completion of culture, the culture medium was removed from the wells, and the cells were washed with phosphate buffered physiological saline (PBS) and then separated from the bottoms of the wells with medium including trypsin and EDTA to prepare cell suspensions, followed by centrifugation to collect the cells. The number of the cells was counted using a hemocytometer. Thereafter, the amounts of ^14C-thiouracil in the cells collected from each well (0.25×10^−6 Ci) were measured using a liquid scintillation counter (ALOKA CO., LTD.). The percentages of an amount of radioactivity in the cells cultured in the medium including the test substances with respect to an amount of radioactivity in the cells collected from the well of the control were calculated as amounts of melanin (%). That is, as the amount of radioactivity incorporated into the cells is smaller, the amount of melanin is evaluated to be smaller, i.e., the melanin inhibition effect of the component added is evaluated to be larger.
Inhibitory effects on melanin production of Compounds 2 to 39 (however, the effects of Compound 9 and 15 were not measured) were examined in the same procedure as in Test Example 1.
These were examined in the same procedure as in Test Example 1.
Further, the results of melanin production inhibition by treatment with the respective test compounds, determined in the same procedure as in Test Example 1, are also shown in the table.

[1] = Homo sapiens, Melanocyte, Table 2

Work on CC(c1ccccc1)(c1ccc(O)cc1)c1ccc(O)cc1 [4,4′-(1-Phenylidene)-bisphenol] yielded an Amount of melanin (Table 3, addition amount 3.0 μM) of 44.8 ± 1.0%.
In the case of Oc1ccc(C2(c3ccc(O)cc3)CCCCC2)cc1 [4,4′-Cyclohexylidenebisphenol], the activity at 3 µM (Homo sapiens, Melanocyte, Table 3, addition amount 3.0 μM) is reported as 38.3 ± 2.5%.
CC(c1ccc(O)cc1)c1ccc(O)cc1 [4,4′-Ethylidenebisphenol] was tested, and the activity at 25 µM (Homo sapiens, Melanocyte, Table 3, addition amount 25 μM) was 30.5 ± 6.1%.
In the case of Oc1ccc(C(c2ccccc2)(c2ccccc2)c2ccccc2)cc1 [4-Tritylphenol], the activity at 1.25 µM (Homo sapiens, Melanocyte, Table 3, addition amount 1.25 μM) is reported as 27 ± 0.4%.
OC[C@H]1O[C@@H](Oc2ccc(O)cc2)[C@H](O)[C@@H](O)[C@@H]1O [Arbutin, arbutin, reference compound] showed an activity at 500 µM (Homo sapiens, Melanocyte, addition amount 500 μM, mean ± SD of three samples) of 64.6 ± 2.3%.
In the case of c1ccc(C(c2ccccc2)(c2ccccc2)N2CCNCC2)cc1 [Compound 7, 1-(triphenylmethyl)piperazine], the activity at 6 µM (Homo sapiens, Melanocyte, Table 2, addition amount 6.0 μM) is reported as 51.1 ± 5.8%.
With c1ccc(C(c2ccccc2)(c2ccccc2)N2CCOCC2)cc1 [Compound 8, N-(triphenylmethyl)morpholine] the activity at 2.5 µM (Homo sapiens, Melanocyte, Table 2, addition amount 2.5 μM) was 39.2 ± 10.7%.
With c1ccc(C(c2ccccc2)(c2ccncc2)N2CCCCC2)cc1 [Compound 10, 1-{[diphenyl(4-pyridyl)]methyl}piperidine] the activity at 0.3 µM (Homo sapiens, Melanocyte, Table 2, addition amount 0.3 μM) was 77.3 ± 0.4%.
For O=C1CCC(=O)N1C(c1ccccc1)(c1ccccc1)c1ccccc1 [Compound 11, 1-(triphenylmethyl)succinimide], the activity at 15 µM (Homo sapiens, Melanocyte, Table 2, addition amount 15 μM) was 53.7 ± 0.9%.
Work on O[C@@H]1CCN(C(c2ccccc2)(c2ccccc2)c2ccccc2)C1 [Compound 12, (R)-1-triphenylmethyl-3-pyrrolidinol] yielded an activity at 5 µM [1] of 62.9 ± 3.7%.
With OC(c1ccccc1)c1ccc2ccccc2c1 (stereo not shown) [Compound 13, [(naphthyl)phenyl]methanol] the activity at 20 µM [1] was 68.7 ± 5.2%.
In the case of OC(c1ccccc1)(c1ccccn1)c1ccccn1 [Compound 16, di(2-pyridyl)phenylmethanol], the activity at 100 µM (Homo sapiens, Melanocyte, Table 2, addition amount 100 μM) is reported as 91.5 ± 4.6%.
Work on COc1ccc(C(O)(c2ccccc2)c2ccccc2)cc1 [Compound 17, [diphenyl(4-methoxyphenyl)]methanol] yielded an activity at 10 µM [1] of 37 ± 1.5%.
COc1ccc(C(O)(c2ccccc2)c2ccc(OC)cc2)cc1 [Compound 18, [bis(4-methoxyphenyl)phenyl]methanol] gave an activity at 10 µM [1] of 55.3 ± 3.4%.
COc1ccc(C(c2ccccc2)(c2ccccc2)N2CCCCC2)cc1 [Compound 19, 1-[[(4-methoxyphenyl)diphenyl]methyl]piperidine] showed an activity at 3.1 µM [1] of 51.5 ± 5.7%.
With COc1ccc(C(c2ccccc2)(c2ccc(OC)cc2)N2CCCCC2)cc1 [Compound 20, 1-[[bis(4-methoxyphenyl)phenyl]methyl]piperidine] the activity at 3.1 µM [1] was 73.2 ± 3.2%.
For COc1ccc(C(c2ccc(OC)cc2)(c2ccc(OC)cc2)N2CCCCC2)cc1 [Compound 21, 1-[tris(4-methoxyphenyl)methyl]piperidine], the activity at 12.5 µM (Homo sapiens, Melanocyte, Table 2, addition amount 12.5 μM) was 53.5 ± 0.4%.
Cc1ccc(C(O)(c2ccc(C)cc2)c2ccc(C)cc2)cc1 [Compound 22, tris(4-methylphenyl)methanol] was tested, and the activity at 1.6 µM [1] was 50.6 ± 2%.
For Cc1ccc(C(O)(c2ccccc2)c2ccc(C)cc2)cc1 [Compound 23, [bis(4-methylphenyl)phenyl]methanol], the activity at 3.1 µM [1] was 47.2 ± 0.2%.
For Cc1ccc(C(O)(c2ccccc2)c2ccccc2)cc1 [Compound 24, [diphenyl(4-methylphenyl)]methanol], the activity at 3.1 µM [1] was 51.6 ± 1.6%.
Cc1ccc(C(c2ccccc2)(c2ccccc2)N2CCCCC2)cc1 [Compound 25, [[diphenyl(4-methylphenyl)]methyl]piperidine] showed an activity at 1.6 µM [1] of 48 ± 1.9%.
In the case of Cc1ccc(C(c2ccc(C)cc2)(c2ccc(C)cc2)N2CCCCC2)cc1 [Compound 27, 1-[tris(4-methylphenyl)methyl]piperidine], the activity at 3.1 µM [1] is reported as 47.5 ± 0.6%.
Molecule c1ccc(C(c2ccccc2)N2CCCC2)cc1 [Compound 28, 1-(diphenylmethyl)pyrrolidine] has an activity at 60 µM (Homo sapiens, Melanocyte, Table 2, addition amount 60 μM) of 77.3 ± 5.6%.
For Cc1ccc(C(c2ccc(C)cc2)N2CCCC2)cc1 [Compound 29, 1-[bis(4-methylphenyl)methyl]pyrrolidine], the activity at 20 µM [1] was 49 ± 1.9%.
Work on CCNC(c1ccccc1)(c1ccccc1)c1ccccc1 [Compound 30, N-(triphenylmethyl)-N-ethylamine] yielded an activity at 8 µM [1] of 41.4 ± 0.7%.
Molecule COc1ccc(C(OCCO)(c2ccccc2)c2ccccc2)cc1 [Compound 31, 2-[[diphenyl(4-methoxyphenyl)]methyloxy]ethanol] has an activity at 3.1 µM [1] of 37.6 ± 3.3%.
Work on COc1ccc(C(OCCO)(c2ccccc2)c2ccc(OC)cc2)cc1 [Compound 32, 2-[bis(4-methoxyphenyl)phenylmethyloxy]ethanol] yielded an activity at 3.1 µM [1] of 58.8 ± 7.1%.
Molecule COc1ccc(C(NCCO)(c2ccccc2)c2ccccc2)cc1 [Compound 33, 2-[[diphenyl(4-methoxyphenyl)]methylamino]ethanol] has an activity at 5 µM [1] of 67.7 ± 5.1%.
For COc1ccc(C(NCCO)(c2ccccc2)c2ccc(OC)cc2)cc1 [Compound 34, 2-[[bis(4-methoxyphenyl)phenyl]methylamino]ethanol], the activity at 5 µM [1] was 71.4 ± 1.9%.
For COc1ccc(C(OCCN)(c2ccccc2)c2ccccc2)cc1 [Compound 35, 2-[[diphenyl (4-methoxyphenyl)]methyloxy]ethylamine], the activity at 5 µM [1] was 80.4 ± 8.8%.
For COc1ccc(C(OCCN)(c2ccccc2)c2ccc(OC)cc2)cc1 [Compound 36, 2-[[bis(4-methoxyphenyl)phenyl]methyloxy]ethylamine], the activity at 10 µM [1] was 71.7 ± 5.1%.
For OCCN(CCO)C(c1ccccc1)(c1ccccc1)c1ccccc1 [Compound 37, N,N-[bis(2-hydroxyethyl)]-N-(triphenylmethyl)amine], the activity at 4 µM (Homo sapiens, Melanocyte, Table 2, addition amount 4.0 μM) was 69.6 ± 3.9%.
OCC(O)COC(c1ccccc1)(c1ccccc1)c1ccccc1 (stereo not shown) [Compound 38, 1,2-dihydroxy-3-(triphenylmethyloxy)propane] was tested, and the activity at 8 µM [1] was 75.6 ± 0.2%.
For O=C(O)[C@H](CO)NC(c1ccccc1)(c1ccccc1)c1ccccc1 [Compound 39, N-(triphenylmethyl) serine], the activity at 8 µM [1] was 54.9 ± 5.5%.
